Results published in ChEMBL document CHEMBL1201862, “PubChem BioAssay data set” (2004).
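Compound exposure: 48 hours, 5 concentrations, 96-well plates. Here, GI50 denotes the concentration required for 50% inhibition of growth.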 Active and inactive are the calls of the source. No stated cut-off is given here; in the data, active = GI50 up to about 1.1 µM and inactive = higher.

Columns and labels:
Assay in all cases: NCI tumour cell line growth inhibition, 48 h
DMS-114 = tested on: DMS-114
DLD-1 = tested on: DLD-1
CAKI-1 = tested on: CAKI-1
HCT-116 = tested on: HCT-116
HT-29 = tested on: HT-29
SF-295 = tested on: SF-295
SW-620 = tested on: SW-620
A498 = tested on: A498
786-0 = tested on: 786-0
K562 = tested on: K562
SNB-75 = tested on: SNB-75
SF-539 = tested on: SF-539
KM12 = tested on: KM12
KM-20L2 = tested on: KM-20L2
NCI-H226 = tested on: NCI-H226
HOP-18 = tested on: HOP-18
RPMI-8226 = tested on: RPMI-8226
OVCAR-5 = tested on: OVCAR-5
A549 = tested on: A549
MOLT-4 = tested on: MOLT-4
IGROV-1 = tested on: IGROV-1
LOX IMVI = tested on: LOX IMVI
RXF 393 = tested on: RXF 393
UACC-257 = tested on: UACC-257
U-251 = tested on: U-251
M19-MEL = tested on: M19-MEL
HOP-92 = tested on: HOP-92
NCI-H23 = tested on: NCI-H23
OVCAR-4 = tested on: OVCAR-4
SF-268 = tested on: SF-268
HOP-62 = tested on: HOP-62
Malme-3M = tested on: Malme-3M
SN12C = tested on: SN12C
ACHN = tested on: ACHN
COLO 205 = tested on: COLO 205
SK-MEL-5 = tested on: SK-MEL-5
HL-60 = tested on: HL-60
LXFL 529 = tested on: LXFL 529
DMS-273 = tested on: DMS-273
M14 = tested on: M14
SR = tested on: SR
OVCAR-8 = tested on: OVCAR-8
SK-OV-3 = tested on: SK-OV-3
TK-10 = tested on: TK-10
NCI-H522 = tested on: NCI-H522
CCRF-CEM = tested on: CCRF-CEM
OVCAR-3 = tested on: OVCAR-3
HCT-15 = tested on: HCT-15
SNB-78 = tested on: SNB-78
SK-MEL-2 = tested on: SK-MEL-2
UACC-62 = tested on: UACC-62
UO-31 = tested on: UO-31
NCI-H460 = tested on: NCI-H460
SK-MEL-28 = tested on: SK-MEL-28

## O=Cc1c(O)ccc2ccc(O)c(-c3c(O)ccc4ccc(O)cc34)c12
DMS-114
  GI50: 96.2 µM (inactive)
DLD-1
  GI50: > 100 µM (inactive)
CAKI-1
  GI50: > 100 µM (inactive)
HCT-116
  GI50: > 100 µM (inactive)
HT-29
  GI50: > 100 µM (inactive)
SF-295
  GI50: 53.1 µM (inactive)
SW-620
  GI50: > 100 µM (inactive)
A498
  GI50: 43.2 µM (inactive)
786-0
  GI50: > 100 µM (inactive)
K562
  GI50: > 100 µM (inactive)
SNB-75
  GI50: 88.7 µM (inactive)
SF-539
  GI50: 52.7 µM (inactive)
KM12
  GI50: 98.4 µM (inactive)
KM-20L2
  GI50: > 100 µM (inactive)
NCI-H226
  GI50: 28.6 µM (inactive)
HOP-18
  GI50: 49.5 µM (inactive)
RPMI-8226
  GI50: > 100 µM (inactive)
OVCAR-5
  GI50: > 100 µM (inactive)
A549
  GI50: > 100 µM (inactive)
MOLT-4
  GI50: > 100 µM (inactive)
IGROV-1
  GI50: > 100 µM (inactive)
LOX IMVI
  GI50: > 100 µM (inactive)
RXF 393
  GI50: 44.4 µM (inactive)
UACC-257
  GI50: > 100 µM (inactive)
U-251
  GI50: > 100 µM (inactive)
M19-MEL
  GI50: > 100 µM (inactive)
HOP-92
  GI50: 66.7 µM (inactive)
NCI-H23
  GI50: > 100 µM (inactive)
OVCAR-4
  GI50: > 100 µM (inactive)
SF-268
  GI50: > 100 µM (inactive)
HOP-62
  GI50: > 100 µM (inactive)
Malme-3M
  GI50: 37.5 µM (inactive)
SN12C
  GI50: > 100 µM (inactive)
ACHN
  GI50: > 100 µM (inactive)
COLO 205
  GI50: > 100 µM (inactive)
SK-MEL-5
  GI50: > 100 µM (inactive)
HL-60
  GI50: > 100 µM (inactive)
LXFL 529
  GI50: 75.3 µM (inactive)
DMS-273
  GI50: > 100 µM (inactive)
M14
  GI50: > 100 µM (inactive)
SR
  GI50: 67.9 µM (inactive)
OVCAR-8
  GI50: > 100 µM (inactive)
SK-OV-3
  GI50: > 100 µM (inactive)
TK-10
  GI50: > 100 µM (inactive)
NCI-H522
  GI50: 80.9 µM (inactive)
CCRF-CEM
  GI50: 99.3 µM (inactive)
OVCAR-3
  GI50: 48.2 µM (inactive)
HCT-15
  GI50: > 100 µM
SNB-78
  GI50: > 100 µM (inactive)
SK-MEL-2
  GI50: 31.8 µM (inactive)
UACC-62
  GI50: 77.8 µM (inactive)
UO-31
  GI50: > 100 µM (inactive)
NCI-H460
  GI50: > 100 µM (inactive)
SK-MEL-28
  GI50: > 100 µM (inactive)

## COc1ccc(C2S/C(=C\c3ccc(O)cc3)C(=O)N2NC(=O)Cc2ccccc2)cc1 (stereo not given)
DMS-114
  GI50: > 100 µM (inactive)
DLD-1
  GI50: > 100 µM (inactive)
CAKI-1
  GI50: > 100 µM (inactive)
HCT-116
  GI50: > 100 µM (inactive)
HT-29
  GI50: > 100 µM (inactive)
SF-295
  GI50: > 100 µM (inactive)
SW-620
  GI50: > 100 µM (inactive)
A498
  GI50: > 100 µM (inactive)
786-0
  GI50: > 100 µM (inactive)
K562
  GI50: > 100 µM (inactive)
SNB-75
  GI50: 90.8 µM (inactive)
SF-539
  GI50: > 100 µM (inactive)
KM12
  GI50: > 100 µM (inactive)
NCI-H226
  GI50: > 100 µM (inactive)
HOP-18
  GI50: > 100 µM (inactive)
RPMI-8226
  GI50: > 100 µM (inactive)
OVCAR-5
  GI50: > 100 µM (inactive)
A549
  GI50: > 100 µM (inactive)
MOLT-4
  GI50: > 100 µM (inactive)
IGROV-1
  GI50: > 100 µM (inactive)
LOX IMVI
  GI50: > 100 µM (inactive)
RXF 393
  GI50: > 100 µM (inactive)
UACC-257
  GI50: > 100 µM (inactive)
U-251
  GI50: > 100 µM (inactive)
M19-MEL
  GI50: > 100 µM (inactive)
HOP-92
  GI50: > 100 µM (inactive)
NCI-H23
  GI50: > 100 µM (inactive)
OVCAR-4
  GI50: > 100 µM (inactive)
SF-268
  GI50: > 100 µM (inactive)
HOP-62
  GI50: > 100 µM (inactive)
Malme-3M
  GI50: > 100 µM (inactive)
SN12C
  GI50: > 100 µM (inactive)
ACHN
  GI50: > 100 µM (inactive)
COLO 205
  GI50: > 100 µM (inactive)
SK-MEL-5
  GI50: > 100 µM (inactive)
HL-60
  GI50: > 100 µM (inactive)
LXFL 529
  GI50: > 100 µM (inactive)
DMS-273
  GI50: > 100 µM (inactive)
M14
  GI50: > 100 µM (inactive)
SR
  GI50: > 100 µM (inactive)
OVCAR-8
  GI50: > 100 µM (inactive)
SK-OV-3
  GI50: > 100 µM (inactive)
TK-10
  GI50: > 100 µM (inactive)
NCI-H522
  GI50: > 100 µM (inactive)
CCRF-CEM
  GI50: > 100 µM (inactive)
HCT-15
  GI50: > 100 µM
SK-MEL-2
  GI50: > 100 µM (inactive)
UACC-62
  GI50: > 100 µM (inactive)
UO-31
  GI50: > 100 µM (inactive)
NCI-H460
  GI50: > 100 µM (inactive)
SK-MEL-28
  GI50: > 100 µM (inactive)
